Measurements: publication PMC6562471 (Cancers, 2019)

Experiments:
[1] = system: A549 cells; assay: Annexin V-FITC/PI apoptosis assay, A549; assay type: cell-based, human; conditions: A549, 0.4 μM, 48 h; control 6.09%
Protocol: (§1) Annexin FITC/PI assay was performed as described previously. Cell apoptosis was evaluated using Annexin V FITC/PI apoptosis detection kit (BD Biosciences, San Jose, CA, USA) according to the manufacturer’s instruction. […] Wash the cells with cold PBS buffer before staining with 5 μL of Annexin V-FITC and 5 μL of propidium iodide in the 500 μL 1× binding buffer. Finally, the stained cells were incubated for 15 min at room temperature in the dark before analyzing with FACS Calibur flow cytometer, (Becton Dickinson, San Jose, CA, USA).

[2] = system: A549 xenograft; assay: A549 nude mouse xenograft model; assay type: in vivo
Protocol: (§2) All animal experiments were followed the guidelines approved by the Seoul National University Institutional Animal Care and Use Committee (IACUC permission number SNU-170103-2-1). […]. Drug treatment started when their tumor volumes reached to 80–100 mm^3. […]. Body weight and tumor size were measured three times per week. The tumor size was calculated according to the formula V = 0.5 × length × width^2.

[3] = system: A549 cells; assay: Cell viability (SRB assay), A549; assay type: cell-based, human
Protocol: (§4) Cell viability assay was performed using SRB assay as described previously [22].

[4] = system: phospho-Met; assay: Phospho-receptor tyrosine kinase array, A549; assay type: cell-based, human; conditions: A549 cells, 0.2 μM
Protocol: Phosphorylated RTKs were measured with the Human Phospho-RTK Array Kit (ARY001B) from R&D Systems (Minneapolis, MN, USA) according to the manufacturer’s instructions.

[5] = Pharmacokinetic study in male ICR mice; assay type: in vivo; conditions: mouse, plasma, po 10 mg/kg
Protocol: The male ICR mice (25–30 g, 7–8 weeks of age) were purchased from Koatech Co. (Pyeontak, Kyonggi-do, Korea). Animals were fed with free access to standard chow diet and water. All animal use and care followed the guidelines approved by the Institutional Animal Care and Use Committee of Flow Sciences.INC. (Approval No.: NDDC PK 2018 076 01-DFX117-(4364)). Animals were acclimatized for 1 week at of 23–25 °C temperature, 40–70% relative humidity and 12 h light/12 h dark cycle before study. […] Approximately 80 µL of blood samples were collected into BD Microtainer plasma separator tubes at times 0.25, 0.5, 1.0, 2.0, 4.0, 6.0 and 8.0 h through the saphenous vein over […] post dosing. Blood samples were centrifuged at 15,000 rpm for 5 min and stored in a freezer until analysis. Protein precipitation was conducted on 15 µL of plasma samples using three volumes of acetonitrile containing carbamazepine as an internal analytical standard. After centrifugation, the supernatant was analyzed on a Nexera XR system (Shimadzu, Japan) system coupled with TSQ vantage triple quadruple (Thermo Fisher Scientific, Waltham, MA, USA) system. Chromatographic separation was performed on a Kinetex XB-C18 column (2.1 × 100 mm, 2.6 μm, particle size; Phenomenex, CA, USA) running a linear gradient of solvent A (0.1% formic acid in deionized water) and B (0.1% formic acid in acetonitrile). Detection of the analyte ions was performed in a positive MRM mode, monitoring the following precursor >product ion transitions: m/z 573.1 > 417.8. Analytical data were processed using MassHunter B04.01 (Agilent Korea, Seoul, Korea). Pharmacokinetic parameters were calculated via non-compartmental analysis of the plasma concentration-time profiles using PK Solver.

[6] = system: NCI-H1975 cells; assay: Colony formation, NCI-H1975; assay type: cell-based, human; conditions: NCI-H1975, 72 h treatment then 10 days culture
Description: (§3) The cells were then washed once with PBS and continue to culture with full-growth medium for 10 days, change the culture medium to fresh ones every three days. Cells were stained with 0.1% crystal violet after fixing with 100% methanol.

[7] = system: NCI-H1975 cells; assay: Annexin V-FITC/PI apoptosis assay, NCI-H1975; assay type: cell-based, human; conditions: NCI-H1975, 0.4 μM, 48 h; control 4.15%
Protocol: as §1

[8] = system: NCI-H1975 cells; assay: Cell viability (SRB assay), NCI-H1975; assay type: cell-based, human
Protocol: as §4

[9] = system: A549 cells; assay: Colony formation, A549; assay type: cell-based, human; conditions: A549, 72 h treatment then 10 days culture
Description: as §3

[10] = Cell viability (SRB assay), normal MRC-5; assay type: cell-based; conditions: human, normal cell line
Protocol: as §4

[11] = target: T1, c-Met (Homo sapiens, UniProt P08581); assay: c-Met kinase activity assay (Met Kinase Assay/Inhibitor Screening Kit); assay type: biochemical; conditions: cell-free kinase activity
T1 construct: purchased Abnova KA0055

[12] = system: NCI-H1975 xenograft; assay: NCI-H1975 nude mouse xenograft model; assay type: in vivo
Protocol: as §2

T1 sequence (P08581 25-1390): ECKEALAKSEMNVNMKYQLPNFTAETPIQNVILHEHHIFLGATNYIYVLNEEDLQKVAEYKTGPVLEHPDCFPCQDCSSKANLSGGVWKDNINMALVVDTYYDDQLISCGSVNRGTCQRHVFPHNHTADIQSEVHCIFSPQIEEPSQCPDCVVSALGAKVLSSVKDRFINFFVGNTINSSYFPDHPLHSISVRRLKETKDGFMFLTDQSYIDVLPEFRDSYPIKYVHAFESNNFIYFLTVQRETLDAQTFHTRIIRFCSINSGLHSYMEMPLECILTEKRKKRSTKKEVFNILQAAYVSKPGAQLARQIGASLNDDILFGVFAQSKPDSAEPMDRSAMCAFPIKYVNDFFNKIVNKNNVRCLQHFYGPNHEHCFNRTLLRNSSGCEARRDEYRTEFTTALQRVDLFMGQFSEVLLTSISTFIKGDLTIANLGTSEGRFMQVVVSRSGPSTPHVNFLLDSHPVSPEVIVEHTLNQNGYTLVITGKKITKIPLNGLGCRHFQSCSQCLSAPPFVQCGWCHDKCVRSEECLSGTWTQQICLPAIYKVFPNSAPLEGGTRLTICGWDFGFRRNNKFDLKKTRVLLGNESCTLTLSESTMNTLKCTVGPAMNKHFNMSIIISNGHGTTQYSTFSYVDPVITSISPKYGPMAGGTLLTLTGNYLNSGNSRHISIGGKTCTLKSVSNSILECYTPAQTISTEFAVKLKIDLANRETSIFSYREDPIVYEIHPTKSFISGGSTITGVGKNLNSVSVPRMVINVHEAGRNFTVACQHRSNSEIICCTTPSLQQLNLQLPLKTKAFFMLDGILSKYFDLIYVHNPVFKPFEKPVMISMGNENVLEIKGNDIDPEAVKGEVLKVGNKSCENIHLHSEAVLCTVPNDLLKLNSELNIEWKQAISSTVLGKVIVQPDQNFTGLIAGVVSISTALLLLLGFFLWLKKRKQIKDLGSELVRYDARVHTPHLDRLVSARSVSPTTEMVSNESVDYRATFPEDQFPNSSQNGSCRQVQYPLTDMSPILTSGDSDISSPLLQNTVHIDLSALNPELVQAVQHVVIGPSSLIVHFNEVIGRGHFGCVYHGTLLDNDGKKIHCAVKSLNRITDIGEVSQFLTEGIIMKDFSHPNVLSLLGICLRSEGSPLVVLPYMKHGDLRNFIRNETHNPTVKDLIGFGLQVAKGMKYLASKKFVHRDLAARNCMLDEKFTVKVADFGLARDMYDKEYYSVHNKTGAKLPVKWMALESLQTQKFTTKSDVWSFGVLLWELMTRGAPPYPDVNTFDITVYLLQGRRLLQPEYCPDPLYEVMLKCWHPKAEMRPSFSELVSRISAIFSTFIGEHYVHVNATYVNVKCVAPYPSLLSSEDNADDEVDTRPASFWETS

Question: Which “Population of apoptotic cells (Annexin V positive)” value [1] does the source give for `COc1ncc(-c2ccc3ncc(C(=O)NCCN4CCOCC4)n3c2)cc1NS(=O)(=O)c1ccc(F)cc1F` [DFX117, 6-(5-(2,4-difluorophenylsulfonamido)-6-methoxypyridin-3-yl)-N-(2-morpholinoethyl) imidazo[1,2-a]pyridine-3-carboxamide] here?
Answer: 26.84%

Question: And the “Overt toxicity or body weight change” value ([2]; A549 xenograft, 5, 10 or 20 mg/kg orally daily for 23 days)?
Answer: No overt toxicity or body weight change was observed

Question: And the “Excised tumor weights on the termination day” value ([2]; A549 xenograft, oral daily for 23 days)?
Answer: significantly inhibited

Question: And the “Growth inhibitory activity compared with HS-173” value [3]?
Answer: superior to that of HS-173

Question: And the “Phospho-Met level (phospho-RTK array)” value [4]?
Answer: markedly suppressed

Question: And the AUC [5]?
Answer: 3340 ng·h/mL

Question: And the Cmax [5]?
Answer: 4500 ng/mL

Question: What about the Tmax [5] of the same compound?
Answer: 18 min

Question: What about the half-life [5] of the same compound?
Answer: 126 min

Question: What about the MRT inf ([5]; read-out: MRTinf_obs) of the same compound?
Answer: 2.2 h

Question: What about the Colony formation [6] of the same compound?
Answer: significantly inhibited

Question: And the “Population of apoptotic cells (Annexin V positive)” value [7]?
Answer: 32.75%

Question: What about the “Growth inhibitory activity compared with HS-173” value [8] of the same compound?
Answer: superior to that of HS-173

Question: And the Colony formation [9]?
Answer: significantly inhibited

Question: And the IC50 [10]?
Answer: 2890 nM

Question: And the IC50 [11]?
Answer: 17.1 nM

Question: What about the “Overt toxicity or body weight change” value ([12]; 10 or 20 mg/kg orally daily for 23 days) of the same compound?
Answer: No overt toxicity or body weight change was observed

Question: And the Tumor weights ([12]; oral daily for 23 days)?
Answer: significantly inhibited
